Reference: PubChem BioAssay (NCI)
“And” between values parts separate entries of the source, which are not always exact repeats. Equal values may be shown once.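 How tested: cells in 96-well plates exposed to compound for 48 hours at five concentrations. GI50 is the concentration that inhibits growth by half. TGI is the concentration that stops growth completely.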

Tests used:
Assay in all cases: NCI anticancer screen, dose series, 48 h
SF-295 CNS = test system: SF-295 CNS
SNB-75 CNS = test system: SNB-75 CNS
NCI-H522 lung = test system: NCI-H522 lung
UACC-257 melanoma = test system: UACC-257 melanoma
OVCAR-5 ovarian = test system: OVCAR-5 ovarian
A549 NSCLC = test system: A549 NSCLC
NCI-H226 lung = test system: NCI-H226 lung
SF-268 CNS = test system: SF-268 CNS
HL-60(TB) leukemia = test system: HL-60(TB) leukemia
HCC-2998 colon = test system: HCC-2998 colon

For `COc1cc2c3c(n(CCCCOC(=O)C(Cl)(Cl)Cl)c(=O)c2cc1OC)-c1cc2c(cc1C3=O)OCO2`, the GI50 (SF-295 CNS) was 8.71 µM, the TGI (SF-295 CNS) was > 100 µM and the GI50 (SNB-75 CNS) was > 100 µM. For the same molecule, the TGI (SNB-75 CNS) was > 100 µM, the GI50 (NCI-H522 lung) was 0.692 µM and the TGI (NCI-H522 lung) was 76.3 µM. The GI50 (UACC-257 melanoma) was > 100 µM, the TGI (UACC-257 melanoma) was > 100 µM and the GI50 (OVCAR-5 ovarian) was > 100 µM. For the same molecule, the TGI (OVCAR-5 ovarian) was > 100 µM, the GI50 (A549 NSCLC) was > 100 µM and the TGI (A549 NSCLC) was > 100 µM. The GI50 (NCI-H226 lung) was 67.6 µM, the TGI (NCI-H226 lung) was > 100 µM and the GI50 (SF-268 CNS) was 30 µM. For the same molecule, the TGI (SF-268 CNS) was > 100 µM, the GI50 (HL-60(TB) leukemia) was > 100 µM and the TGI (HL-60(TB) leukemia) was > 100 µM.
With `CON(C)C(=O)N1N=C(c2cc(F)ccc2F)SC1(CCCN)c1ccccc1` (configuration not stated) the GI50 (SF-295 CNS) was 0.0191 µM and < 0.01 µM, the TGI (SF-295 CNS) was 1.1 µM and the GI50 (SNB-75 CNS) was 0.0531 µM and < 0.01 µM. The TGI (SNB-75 CNS) was 16.2 µM and 15 µM, the GI50 (NCI-H522 lung) was 0.0201 µM and < 0.01 µM and the TGI (NCI-H522 lung) was 10.7 µM and 5.31 µM. The GI50 (HCC-2998 colon) was < 0.01 µM, the TGI (HCC-2998 colon) was 4.34 µM and 4.41 µM and the TGI (UACC-257 melanoma) was 21.7 µM and 22.3 µM. The GI50 (OVCAR-5 ovarian) was 0.0576 µM and < 0.01 µM, the TGI (OVCAR-5 ovarian) was 15.1 µM and 15.8 µM and the GI50 (A549 NSCLC) was 0.024 µM and < 0.01 µM. The TGI (A549 NSCLC) was 17.1 µM and 18.2 µM, the GI50 (NCI-H226 lung) was 12 µM and 12.5 µM and the TGI (NCI-H226 lung) was 27.3 µM and 28.3 µM. For the same molecule, the GI50 (SF-268 CNS) was 0.0217 µM and < 0.01 µM, the TGI (SF-268 CNS) was 17.3 µM and 16 µM and the GI50 (HL-60(TB) leukemia) was 0.0184 µM and < 0.01 µM. For the same molecule, the TGI (HL-60(TB) leukemia) was 5.38 µM and 2.03 µM.
Molecule `O=C(/C=C\n1cnc(-c2cc(C(F)(F)F)cc(C(F)(F)F)c2)n1)NNc1cnccn1` has a GI50 (SF-295 CNS) of 0.0534 µM, a TGI (SF-295 CNS) of 11.2 µM and a GI50 (SNB-75 CNS) of 0.118 µM. For the same molecule, the TGI (SNB-75 CNS) was 1.97 µM, the GI50 (NCI-H522 lung) was 0.128 µM and the TGI (NCI-H522 lung) was 6.42 µM. It also gave a GI50 (HCC-2998 colon) of 0.112 µM, a TGI (HCC-2998 colon) of 1.93 µM and a GI50 (UACC-257 melanoma) of 0.188 µM. It also gave a TGI (UACC-257 melanoma) of 16.6 µM, a GI50 (OVCAR-5 ovarian) of 0.189 µM and a TGI (OVCAR-5 ovarian) of 16.3 µM. It also gave a GI50 (A549 NSCLC) of 0.0785 µM, a TGI (A549 NSCLC) of 19 µM and a GI50 (NCI-H226 lung) of 0.0384 µM. It also gave a TGI (NCI-H226 lung) of 3.05 µM, a GI50 (SF-268 CNS) of 0.0577 µM and a TGI (SF-268 CNS) of 10.6 µM. It also gave a GI50 (HL-60(TB) leukemia) of 0.0467 µM.
With `CCCCCN(CCCCC)CC(O)c1ccc(Cl)c2ccccc12` (configuration not stated) the GI50 (SF-295 CNS) was 3.99 µM, the TGI (SF-295 CNS) was 26.3 µM and the GI50 (SNB-75 CNS) was 11.7 µM. It also gave a TGI (SNB-75 CNS) of 35.8 µM, a GI50 (NCI-H522 lung) of 14.4 µM and a TGI (NCI-H522 lung) of 32.1 µM. It also gave a GI50 (HCC-2998 colon) of 3.34 µM, a TGI (HCC-2998 colon) of 9.72 µM and a GI50 (UACC-257 melanoma) of 18.8 µM. The TGI (UACC-257 melanoma) was 38.7 µM, the GI50 (OVCAR-5 ovarian) was 9.41 µM and the TGI (OVCAR-5 ovarian) was 22 µM. The GI50 (A549 NSCLC) was 14.2 µM, the TGI (A549 NSCLC) was 34 µM and the GI50 (NCI-H226 lung) was 10 µM. For the same molecule, the TGI (NCI-H226 lung) was 23.1 µM, the GI50 (SF-268 CNS) was 13.5 µM and the TGI (SF-268 CNS) was 30.1 µM. The GI50 (HL-60(TB) leukemia) was 5.5 µM and the TGI (HL-60(TB) leukemia) was 20.9 µM.
`O=C1OC(c2ccco2)=N/C1=C\c1cccc([N+](=O)[O-])c1` was tested, and the TGI (SF-295 CNS) was > 100 µM, the TGI (SNB-75 CNS) was > 100 µM and the TGI (NCI-H522 lung) was > 100 µM. The TGI (HCC-2998 colon) was > 100 µM, the TGI (UACC-257 melanoma) was > 100 µM and the TGI (OVCAR-5 ovarian) was > 100 µM. The TGI (A549 NSCLC) was > 100 µM, the TGI (NCI-H226 lung) was > 100 µM and the TGI (SF-268 CNS) was > 100 µM. For the same molecule, the TGI (HL-60(TB) leukemia) was > 100 µM.
Work on `COc1ccc2nc3cc(Cl)ccc3c(NCCN)c2c1` yielded a GI50 (NCI-H522 lung) of 1.73 µM, a TGI (NCI-H522 lung) of 3.56 µM and a GI50 (UACC-257 melanoma) of 18.6 µM. For the same molecule, the TGI (UACC-257 melanoma) was 33.3 µM, the GI50 (NCI-H226 lung) was 4.75 µM and the TGI (NCI-H226 lung) was > 100 µM. The GI50 (HL-60(TB) leukemia) was 2.16 µM and the TGI (HL-60(TB) leukemia) was 4.67 µM.
With `Cc1ccc2[nH]c(C(=O)NN3C(=O)C(C)SC34CCCC(C)C4)c(-c3ccccc3)c2c1` (configuration not stated) the GI50 (SF-295 CNS) was 68.5 µM, the TGI (SF-295 CNS) was > 100 µM and the GI50 (SNB-75 CNS) was 60.1 µM. The TGI (SNB-75 CNS) was > 100 µM, the GI50 (NCI-H522 lung) was 78 µM and the TGI (NCI-H522 lung) was > 100 µM. The GI50 (HCC-2998 colon) was 76.6 µM, the TGI (HCC-2998 colon) was > 100 µM and the GI50 (UACC-257 melanoma) was 66.8 µM. The TGI (UACC-257 melanoma) was > 100 µM, the GI50 (OVCAR-5 ovarian) was > 100 µM and the TGI (OVCAR-5 ovarian) was > 100 µM. The GI50 (A549 NSCLC) was 30.9 µM, the TGI (A549 NSCLC) was > 100 µM and the GI50 (NCI-H226 lung) was > 100 µM. For the same molecule, the TGI (NCI-H226 lung) was > 100 µM, the GI50 (SF-268 CNS) was 64.8 µM and the TGI (SF-268 CNS) was > 100 µM.
